Assay results as given in patent US20120148857A1, “Treated wood and methods of treatment” (priority 2010, published 2012).
Where two headings read alike, the source gives them in different places.

Tests used:
[1] = Excerpt: Knowing the molecular weight of the product, it was possible to calculate how many moles of water were hydrated. It was thus possible to calculate the molar content of a saturated solution of the particular zinc salt, and thus to determine if is was sufficiently soluble at a low but possible processing temperature for an unheated preservative-treatment facility. […] Ten grams of the clear solution was dried overnight in a 70 C oven. […] Water has a molecular weight of 18.
The anhydrous foamed salt was crushed and added back to the solution, as crystallization seeding.
The washed precipitates were dried to constant weight in a 70 C oven.

[2] = pH measurement of aqueous solutions with ion-sensitive FET pH meter; format: physicochemical; settings: water
Description: Time was allowed for the pH reading to equilibrate after each addition. This typically took ten to thirty seconds, and increased noticeably with further additions. An Ion-Sensitive FET pH meter was used. The meter was calibrated before and after each measurement series with pH 7.0 buffer solution, and the readings corrected for any meter drift observed. The pH measurements were graphed.
Five milliliters of a solution of pH 4.1 contains about 10^−4 moles H^+ per liter times 5/1000=5×10^−7 moles H^+. Fifteen mL of a solution of pH 7.5 contains 15/1000×10^−75 moles of H^+, or about 10^−9.3 moles H^+. Twenty milliliters of a solution of pH 6.9 contains 20/1000×10^−6.9 moles of H+, or about 10^−8.7 moles of H+.

[3] = from the CRC listed solubility
Description: Following is a listing of candidate zinc salts with the properties found in the CRC handbook, 65th edition, and their stated solubilities at various temperatures, and molecular weights. The Name in each case is followed by CRC listed solubilities at stated temperatures, Molecular weight, and Molarity of saturated solution.

[4] = pH test of impregnating solution with Hydrion test paper; settings: 0.2 molar solution
Description: It was then allowed to float in a 0.2 molar sodium metaborate solution, absorbing it by capillary wicking. After six hours the upper surface was damp.

With `O=C([O-])CC(O)C(=O)[O-].[Zn+2]` (stereo not drawn) [Zinc malate] the “Molarity of saturated solution” value [1] was “mol/L 0.071”, the “Molarity of the saturated solution” value [1] was 0.133 M and the “Solubility (laboratory measurement)” value [1] was “Zinc malate 1.4 g/100 ml@16 C”.
With `O=C([O-])c1ccccc1.O=C([O-])c1ccccc1.[Zn+2]` [Zinc benzoate] the “Molarity of saturated solution” value [1] was “mol/L 0.0117”.
In the case of (ZnO) (B2O3)2, the “pH of a saturated solution” value [2] is reported as 6.7.
In the case of Zinc mandelate, the “Molarity of saturated solution” value ([1]; from the laboratory solubility (10-16 C)) is reported as “mol/L 0.010” and the “Solubility (laboratory measurement)” value ([1]; water, 14 C) is reported as “Zinc mandelate 0.38 g/100 ml@14 C”.
With “zinc borate [zinc borate furnished by City Chemical, reference compound]” the “pH of a saturated solution” value [2] was 6.7.
In the case of Zinc Valerate dihydrate, the “Molarity of saturated solution” value [3] is reported as “mol/L 0.085”.
For `O=B[O-].[Na+]` [sodium metaborate], the “pH of solution by Hydrion test paper” value [4] was 10-11 pH.
In the case of Zinc sorbate, the Solubility in words [1] is reported as “so little solubility even in hot water”.
With `O.O.O.O.O.O.O.O.O=S(=O)([O-])c1ccc(O)cc1.O=S(=O)([O-])c1ccc(O)cc1.[Zn+2]` [Zinc phenol-sulfonate octahydrate] the “Molarity of saturated solution” value [3] was “mol/L 1.12”.
